Source: ChEMBL document CHEMBL5532727, “The Inhibitors of Mucosa-Associated Lymphoid Tissue Lymphoma Translocation Protein 1 (MALT-1) Protease as Potential Treatment of ABC-DLBCL and Similar Diseases” (ACS Med Chem Lett, 2024)

assay: Inhibition of IL-6 production in MALT-1 dependent human OCILY3 cells incubated for 48 hrs by AlphaLISA immunoassay; type: functional, cell-based; details: OCI-Ly3, 48 h

Going from `CO[C@H](C)c1c(Nc2ccc([C@H](N(C)C(=O)C3CCS(=O)(=O)CC3)C(F)(F)F)cc2)cnc2sc(C)nc12` to `CO[C@@H](C)c1c(Nc2ccc([C@H](N(C)C(=O)C3CCS(=O)(=O)CC3)C(F)(F)F)cc2)cnc2sc(C)nc12`, the EC50 rises from 70 nM to 200 nM (2.9-fold). The first is the more potent here.

`CO[C@@H](C)c1c(Nc2ccc([C@H](N(C)C(=O)C3CCS(=O)(=O)CC3)C(F)(F)F)cc2)cnc2sc(C(F)F)nc12` and `CO[C@@H](c1c(Nc2ccc([C@H](N(C)C(=O)C3CCS(=O)(=O)CC3)C(F)(F)F)cc2)cnc2sc(C)nc12)C(F)F` are within 1.5-fold of each other in EC50: 300 nM for the first, 340 nM for the second.

Going from `CO[C@H](c1c(Nc2ccc([C@@H](C(F)F)N(C)C(=O)C3CCN(C(=O)CO)CC3)cc2)cnc2sc(C)nc12)C(F)F` to `CO[C@H](c1c(Nc2ccc([C@@H](C(F)F)N(C)C(=O)C3CCN(C(=O)CO)CC3)cc2)cnc2sc(C)nc12)C(F)(F)F`, the EC50 falls from 440 nM to 270 nM (1.6-fold). The second is the more potent here.

`CO[C@H](C)c1c(Nc2ccc([C@@H](C(F)F)N(C)C(=O)C3CCS(=O)(=O)CC3)cc2)cnc2sc(C)nc12` and `CO[C@H](c1c(Nc2ccc([C@H](N(C)C(=O)C3CCS(=O)(=O)CC3)C(F)(F)F)cc2)cnc2sc(C)nc12)C(F)F` are within 1.5-fold of each other in EC50: 200 nM for the first, 140 nM for the second.

Going from `CO[C@H](c1c(Nc2ccc([C@H](N(C)C(=O)C3CCN(C(C)=O)CC3)C(F)(F)F)cc2)cnc2sc(C)nc12)C(F)F` to `CO[C@@H](C)c1c(Nc2ccc([C@H](N(C)C(=O)C3CCN(C(=O)[C@H](O)CO)CC3)C(F)(F)F)cc2)cnc2sc(C)nc12`, the EC50 falls from 1150 nM to 410 nM (2.8-fold). The second is the more potent here.

First: CO[C@@H](C)c1c(Nc2ccc([C@H](N(C)C(=O)C3CCN(C(=O)CCO)CC3)C(F)(F)F)cc2)cnc2sc(C)nc12
Second: Cc1nc2c([C@H](C)C(F)(F)F)c(Nc3ccc([C@H](N(C)C(=O)C4CCS(=O)(=O)CC4)C(F)(F)F)cc3)cnc2s1 (single isomer, unassigned)
The EC50 of the first is 9.5-fold higher: 380 nM for the first, 40 nM for the second.
